Where a name gives a salt, the structure may show the parent alone.

For series [1], the system named is passive cutaneous anaphylaxis (PCA) reaction. Put plainly: 48-hour homologous PCA (passive cutaneous anaphylaxis) test in rats, antiallergic activity. Conditions: minimum dose with at least one positive among three rats; for minimal effective dose: Rattus norvegicus, po, read-out: Antiallergic Activity, MED (minimum effective dose); for Antiallergic Activity, MED (minimum effective dose): oral. The format is in vivo, male Wistar strain rats. The method, then:
The 48-hour homologous PCA (passive cutaneous anaphylaxis) test was employed. As test animals, male Wistar strain rats weighing 180 to 220 g were used for preparation of antiserum and those weighing 120 to 140 g for PCA test.
(A) Preparation of rat antiserum to EWA
Rat antiserum to egg white albumin (EWA) was prepared by the method of Stotland Share [Canad. J. Physiol. Pharmacol. 52, 1114 (1974)] as follows. One mg of EWA was mixed with 20 mg of aluminum hydroxide gel and 0.5 ml of pertussis/diphtheria/tetanus mixed vaccine, and the mixture was subcutaneously injected to each rat through the sole in four portions. After 14 days, blood samples were taken from the carotid artery, and the serum was separated and stored at -80° C. The 48-hour homologous PCA titer of this antiserum was 1:32.
(B) 48-hour homologous PCA test in rats
Three rats for each group were employed for 48-hour homologous PCA test. Rats were passively sensitized by injecting intradermally at the two spots on the shaved back 0.05 ml portions of the antiserum which was diluted 8-fold with physiological saline. After 47 hours, test compounds or the solutions thereof (physiological saline solution or CMC solution) were orally administered to the rats, and after one hour, the animals were injected intraveneously to tail vein 0.5 ml/100 g body weight of saline containing 2 mg of EWA, together with 1% Evans blue. Thirty minutes after antigen challenge, the rats were sacrificed by exanguination, and the skin was cut out, followed by the evaluation of the intensity of PCA reaction by expressing the amounts of dye leaked. The amounts of dye leaked from the blue-stained section were measured by the metod of Katayama, et al [Microbiol. Immunol. 22, 89 (1978)] as follows. A portion of the blue-stained section cut out with scissors was placed in a test tube containing 1 ml of 1N KOH solution, and incubated at 37° C. for 24 hours. 9 ml of a mixture of 0.6N phosphoric acid and acetone (5:13) was added, and the mixture was shaken and subjected to centrifugation at 2500 rpm for 10 minutes. Then, the absorbance of the supernatant liquid at 620 mμ was measured, and the amount of eluted dye was determined by using a calibration curve previously prepared. The average of the measurements for the two positions was taken as the value for each individual, and the inhibition rate for each rat was calculated from the following formula: [formula]
PCA inhibiting activity was evaluated as positive when the inhibition rate was 50% or higher, and the minimum dose required to achieve positive result for at least one among the three rats in each group was taken as the minimum effective dose (MED).

Series [2] deals with male dd strain mice. Kind of series: Acute toxicity (minimum lethal dose). The format is in vivo. The conditions noted are these: mortality seven days after administration; for Acute Toxicity (MLD) ip: intraperitoneal. The method, then:
The present compound was administered orally (p.o. 300 mg/kg) or intraperitoneally (i.p. 100 mg/kg) to several groups of male dd strain mice weighing 19 to 21 g (each group consisting of three mice), and MLD (minimum lethal dose) was determined by observing the mortality seven days after administration.

`CCOC(=O)c1ccc2c(c1)C(NC1CN3CCC1CC3)c1ccccc1CO2` (stereo not drawn) [Compound 17, 11-(3-Quinuclidinyl)amino-6,11-dihydrodibenz[b,e]oxepin-2-carboxylic acid ethyl ester]: the minimal effective dose in series [1] was 0.1 mg/kg. In series [2], the “Acute Toxicity (MLD) ip” value is > 100 mg/kg and the “Acute Toxicity (MLD) PO” value is > 300 mg/kg.

With `CN(C)CCNC1c2ccccc2COc2ccc(C(N)=O)cc21` (stereo not drawn) [Compound 14, 11-(N,N--dimethylaminoethyl)amino-6,11-dihydrodibenz[b,e]oxepin-2-carboamide], the minimal effective dose in series [1] came out at 1 mg/kg. In series [2], the “Acute Toxicity (MLD) ip” value was > 100 mg/kg and the “Acute Toxicity (MLD) PO” value was determined as 300 mg/kg.

For `CCOC(=O)c1ccc2c(c1)C(SCCN(C)C)c1ccccc1CO2` (stereo not drawn) [Compound 7, 11-(N,N--dimethylaminoethyl)thio-6,11-dihydrodibenz[b,e]oxepin-2-carboxylic acid ethyl ester], in series [1], the minimal effective dose is 10 mg/kg. In series [2], the “Acute Toxicity (MLD) ip” value was > 100 mg/kg and the “Acute Toxicity (MLD) PO” value was > 300 mg/kg.

In the case of `CCOC(=O)c1ccc2c(c1)C(OCCN(C)C)c1ccccc1CO2` (stereo not drawn) [Compound 11, 11-(N,N--dimethylaminoethyl)oxy-6,11-dihydrodibenz[b,e]oxepin-2-carboxylic acid ethyl ester], the minimal effective dose in series [1] was found to be 1 mg/kg. In series [2], the “Acute Toxicity (MLD) ip” value is > 100 mg/kg and the “Acute Toxicity (MLD) PO” value is > 300 mg/kg.

Regarding `CN(C)CCSC1c2ccccc2COc2ccc(C(=O)O)cc21` (stereo not drawn) [Compound 8, 11-(N,N--dimethylaminoethyl)thio-6,11-dihydrodibenz[b,e]oxepin-2-carboxylic acid acetate], in series [1], the “Antiallergic Activity, MED (minimum effective dose)” value (“Antiallergic Activity, MED” for short) is 10 mg/kg. Besides, in series [2], the “Acute Toxicity (MLD) ip” value is > 100 mg/kg and the “Acute Toxicity (MLD) PO” value was > 300 mg/kg.

With `CCOC(=O)OC(C)OC(=O)c1ccc2c(c1)C(SCCN(C)C)c1ccccc1CO2` (stereo not drawn) [Compound 20, 11-(N,N--dimethylaminoethyl)thio-6,11-dihydrodibenz[b,e]oxepin-2-carboxylic acid (1-ethoxycarbonyloxy)ethyl ester], the minimal effective dose in series [1] was 0.1 mg/kg. Moreover, in series [2], the “Acute Toxicity (MLD) ip” value was > 100 mg/kg and the “Acute Toxicity (MLD) PO” value was > 300 mg/kg.

As to `CN1CCN(C2c3ccccc3COc3ccc(C(=O)O)cc32)CC1` (stereo not drawn) [Compound 21, 11-(4-Methylpiperazino)-6,11-dihydrodibenz[b,e]oxepin-2-carboxylic acid dihydrochloride.1/4H2 O], the “Antiallergic Activity, MED” value in series [1] is 1 mg/kg. In series [2], the “Acute Toxicity (MLD) ip” value is > 100 mg/kg and the “Acute Toxicity (MLD) PO” value is > 300 mg/kg.

Regarding `CCOC(=O)OC(C)OC(=O)c1ccc2c(c1)C(N1CCN(C)CC1)c1ccccc1CO2` (stereo not drawn) [Compound 19, 11-(4-Methylpiperazino)-6,11-dihydrodibenz[b,e]oxepin-2-carboxylic acid (1-ethoxycarbonyloxy)ethyl ester], in series [1], the minimal effective dose amounted to 1 mg/kg. Further, in series [2], the “Acute Toxicity (MLD) ip” value was > 100 mg/kg and the “Acute Toxicity (MLD) PO” value is > 300 mg/kg.

On to `CN(C)CCSC1c2ccccc2COc2ccc(C#N)cc21` (stereo not drawn) [Compound 10, 11-(N,N--dimethylaminoethyl)thio-6,11-dihydrodibenz[b,e]oxepin-2-carbonitrile], for which the minimal effective dose in series [1] worked out at 1 mg/kg. Moreover, in series [2], the “Acute Toxicity (MLD) ip” value is > 100 mg/kg and the “Acute Toxicity (MLD) PO” value is > 300 mg/kg.

For the molecule `CN(C)CCSC1c2ccccc2COc2ccc(C(=O)O)cc21` (stereo not drawn) [Compound 22, 11-(N,N--dimethylaminoethyl)thio-6,11-dihydrodibenz[b,e]oxepin-2-carboxylic acid hydrochloride.1/2H2 O], the “Antiallergic Activity, MED” value in series [1] came to 0.1 mg/kg. Also, in series [2], the “Acute Toxicity (MLD) ip” value is > 100 mg/kg and the “Acute Toxicity (MLD) PO” value was > 300 mg/kg.

As for `CN1CCN(C2c3ccccc3COc3ccc(-c4nnn[nH]4)cc32)CC1` (stereo not drawn) [Compound 6, 11-(4-Methylpiperazino)-2-(5-tetrazolyl)-6,11-dihydrodibenz[b,e]oxepin Na salt], in series [1], the minimal effective dose came out at 10 mg/kg. Also, in series [2], the “Acute Toxicity (MLD) ip” value is > 100 mg/kg and the “Acute Toxicity (MLD) PO” value is > 300 mg/kg.

`CN1CCN(C2c3ccccc3COc3ccc(C(=O)O)cc32)CC1` (stereo not drawn) [Compound 3, 11-(4-Methylpiperazino)-6,11-dihydrodibenz[b,e]oxepin-2-carboxylic acid diacetate.2H2 O]: the minimal effective dose in series [1] was 1 mg/kg. In series [2], the “Acute Toxicity (MLD) ip” value is > 100 mg/kg and the “Acute Toxicity (MLD) PO” value is > 300 mg/kg.

For `CN1CCN(C2c3ccccc3COc3ccc(C(N)=O)cc32)CC1` (stereo not drawn) [Compound 4, 11-(4-Methylpiperazino)-6,11-dihydrodibenz[b,e]oxepin-2-carboamide], in series [1], the minimal effective dose was determined as 10 mg/kg. In addition, in series [2], the “Acute Toxicity (MLD) ip” value was > 100 mg/kg and the “Acute Toxicity (MLD) PO” value was > 300 mg/kg.
